Reference: patent publication US5208032A, “Increasing the growth of turkeys using implant of 19-nortestosterone” (Rutgers, The State University of New Jersey, priority 1992, dated 1993)

Assays:
[1] = Comparison of growth on treated male turkeys (Study I, Table V); assay type: in vivo, Large White Nicholas turkeys; design: Abdominal Adipose: unit not given here; conditions: intact male; for Feed/Gain Ratio: n = 4; for Abdominal Adipose (%) / Average Daily Gain (%) / Final 10-Week Body Weight (%) / Right Breast Muscle (%) / Feed Efficiency: change vs placebo; for Abdominal Adipose (%): unsigned (decrease); for Average Daily Gain (%) / Final 10-Week Body Weight (%) / Right Breast Muscle (%): unsigned (increase); for Feed Efficiency: column head prints (g), cells %
Protocol: (§1) The same large white strain of turkey (received 1 day posthatching from Nicholas Breeding Farms, CA) was used in all studies. Poults were reared in deep litter brooder pens from 1 day posthatch and exposed to constant light until initiation of Studies I and III or through completion in the case of Study II. Studies I and III were conducted in an environmentally controlled room (photoperiod 12L:12D) with birds housed individually in wire-floored layer cages (space dimensions of 0.31 W×0.46 L×0.53 H meters per cage). Water and feed (Agway Game and Turkey Starter Crumbles) was available at all times. Turkeys were rank ordered by weight and distributed into treatment groups of equal mean body weights at the start of each Study (I, II and III).
(§2) Body weight determinations were made at the second and final week of each study, and several organs and tissues were excised and immediately weighed at the time of necropsy. Final shank-toe length, as an indicator of skeletal growth, was also determined. Birds were sacrificed via exanguination by laceration of the jugular vein. Specific details on the experimental design and conduct of each turkey study will follow.
At 7 weeks of age, forty-nine male turkeys were rank ordered by weight and assigned to 7 treatment groups ([…]) of equal mean weights. Within treatment groups, two birds were individually caged (layer cages measuring 0.31 W×0.46 L×0.53 H meters/cage) side by side on one of three tiers (5 cages/tier and 3 tiers/rack). […] Individual treatment units (or bird sets) were randomized (planned) into cages among tiers and racks to eliminate any rack (5) or tier (3 vertical) effects within the room.
Group 1 control males were implanted with a 50-mg compressed (methylcellulose/lactose) placebo pellet. The remaining 6 treatment groups were as follows: Group 2, 50-mg testosterone pellet; Group 3, 50-mg 5-alpha-DHT pellet; Group 4, 50-mg 19-nortestosterone pellet; Group 5, 5.0-cm testosterone Silastic polysiloxane capsule; Group 6, 5-cm 5-alpha-DHT Silastic polysiloxane capsule and Group 7, 5.0-cm 19-nortestosterone Silastic polysiloxane capsule. Excluding feed efficiency, data means for all parameters were compared between treatments using individual birds as replicates (n=8). Data means for feed efficiency were compared between treatments using sets of birds as replicates (n=4).

[2] = Comparison of growth in treated female turkeys (Study II, Table IV); assay type: in vivo, Large White Nicholas turkeys; design: Abdominal Adipose: unit not given here; conditions: intact female; for Feed/Gain Ratio: 6 through 9 weeks; for Abdominal Adipose (%) / Feed/Gain Ratio (%) / Average Daily Gain (%) / Final 9-Week Body Weight (%) / Right Breast Muscle (%): change vs placebo; for Abdominal Adipose (%) / Feed/Gain Ratio (%): unsigned (decrease); for Average Daily Gain (%) / Final 9-Week Body Weight (%) / Right Breast Muscle (%): unsigned (increase)
Protocol: as §1, §2
At 6 weeks of age, seventy-seven female turkeys were rank ordered by weight and assigned to 7 treatment groups (11 birds per group) of equal mean weights. Within treatment groups, birds were further allotted to deep-litter pens (3.66×4.27 m) containing 4 subdivisions (0.91×1.22 m), with 3 birds per subdivision except for the last which contained 2. Individual treatment units (or pen subdivisions) were randomized (planned) among pens within the building, such that each pen contained 4 different treatment units (3 or 2 birds each). Feed consumption for each treatment unit was measured; thus, 4 replicates per treatment for feed consumption and feed/gain ratios (or feed efficiency) were calculated.
Treatments entailed the subcutaneous implantation (between the shoulders) of testosterone, 5-alpha-DHT or 19-nortestosterone as either a low (5-mg) or high (50-mg) dose pellet (Innovative Research of America, Rockville, Md.). Implants were specially constructed (steroid compressed into a methylcellulose/lactose pellet) to release respective steroids at a constant rate over a 21 day period (manufacturer statement). In support, a recent report by Satyaswaroop et al. (1984) on mice, found Innovative Research 17 beta-estradiol pellets to have excellent 21-day continued release characteristics (i.e., maintained blood levels of 20-30 ng/ml for 21 days). Group 1 controls were composed of females implanted with a 50-mg placebo pellet. The remaining 6 female treatment groups were as follows: Group 2, testosterone (5-mg); Group 3, 5-alpha-DHT (5-mg); Group 4, 19-nortestosterone (5-mg); Group 5, testosterone (50-mg); Group 6, 5-alpha-DHT (50-mg) and Group 7, 19-nortestosterone (50-mg). Excluding feed efficiency, data means for all other parameters were compared between treatments using individual birds as replicates (n=11). Data means for feed consumption and feed efficiency were compared between treatments using pen subdivisions (3 or 2 birds/subdivision) as replicates (n=8).
^a 5 or 50mg slow release pellets (Innovative Research) administered
subcutaneously at 6 weeks of age.
^b Data for Feed to Gain Ratio is computed for the period 6 through 9
weeks of age. Experimental units are floor pens (n = 4) of […]
values are means and SEM of the pen averages.

C[C@]12CC[C@H]3[C@@H](CCC4=CC(=O)CC[C@@]43C)[C@@H]1CC[C@@H]2O [Testosterone, testosterone]
Abdominal Adipose ([1]; 5-cm Silastic capsule): 13.2 ± 3.57
Average Daily Gain ([1]; 5-cm Silastic capsule): 115 ± 2 g
Final 10-Week Body Weight ([1]; 5-cm Silastic capsule): 5055 ± 61 g
Final 10-Week Shank-Toe Length ([1]; 5-cm Silastic capsule): 24.2 ± 0.18 cm
Right Breast Muscle ([1]; 5-cm Silastic capsule): 457 ± 20 g
Feed/Gain Ratio ([1]; 5-cm Silastic capsule): 2.39 ± 0.088
Abdominal Adipose ([1]; 50-mg pellet): 11.61 ± 1.37
Average Daily Gain ([1]; 50-mg pellet): 116 ± 4 g
Final 10-Week Body Weight ([1]; 50-mg pellet): 5100 ± 82 g
Final 10-Week Shank-Toe Length ([1]; 50-mg pellet): 23.6 ± 0.19 cm
Right Breast Muscle ([1]; 50-mg pellet): 450 ± 10 g
Feed/Gain Ratio ([1]; 50-mg pellet): 2.37 ± 0.086
Abdominal Adipose ([2]; 5-mg pellet): 20.2
Average Daily Gain ([2]; 5-mg pellet): 108 ± 2 g
Final 9-Week Body Weight ([2]; 5-mg pellet): 4096 ± 65 g
Final 9-Week Shank-Toe Length ([2]; 5-mg pellet): 18.9 ± 0.16 cm
Right Breast Muscle ([2]; 5-mg pellet): 430 ± 15 g
Feed/Gain Ratio ([2]; 5-mg pellet): 2.01 ± 0.05
Abdominal Adipose (%) ([2]; 5-mg pellet): 32%
Abdominal Adipose ([2]; 50-mg pellet): 22.8
Average Daily Gain ([2]; 50-mg pellet): 119 ± 3 g
Final 9-Week Body Weight ([2]; 50-mg pellet): 4320 ± 69 g
Final 9-Week Shank-Toe Length ([2]; 50-mg pellet): 18.6 ± 0.13 cm
Right Breast Muscle ([2]; 50-mg pellet): 477 ± 17 g
Feed/Gain Ratio ([2]; 50-mg pellet): 1.91 ± 0.04
Abdominal Adipose (%) ([2]; 50-mg pellet): 23%
Feed/Gain Ratio (%) ([2]; 50-mg pellet): 9.5%
Average Daily Gain (%) ([2]; 50-mg pellet): 15.5%
Final 9-Week Body Weight (%) ([2]; 50-mg pellet): 7.7%
Right Breast Muscle (%) ([2]; 50-mg pellet): 22.3%

C[C@]12CC[C@H]3[C@@H](CCC4=CC(=O)CC[C@@H]43)[C@@H]1CC[C@@H]2O [19-Nortestosterone, 19-nortestosterone]
Abdominal Adipose ([1]; 5-cm Silastic capsule): 7.88 ± 2.10
Average Daily Gain ([1]; 5-cm Silastic capsule): 131 ± 3 g
Final 10-Week Body Weight ([1]; 5-cm Silastic capsule): 5410 ± 73 g
Final 10-Week Shank-Toe Length ([1]; 5-cm Silastic capsule): 23.5 ± 0.15 cm
Right Breast Muscle ([1]; 5-cm Silastic capsule): 513 ± 15 g
Feed/Gain Ratio ([1]; 5-cm Silastic capsule): 1.94 ± 0.041
Abdominal Adipose (%) ([1]; 5-cm capsule): 52.8%
Average Daily Gain (%) ([1]; 5-cm capsule): 20.2%
Final 10-Week Body Weight (%) ([1]; 5-cm capsule): 10.2%
Right Breast Muscle (%) ([1]; 5-cm capsule): 12.6%
Feed Efficiency ([1]; 5-cm capsule): 23.6%
Abdominal Adipose ([1]; 50-mg pellet): 6.74 ± 1.57
Average Daily Gain ([1]; 50-mg pellet): 132 ± 6 g
Final 10-Week Body Weight ([1]; 50-mg pellet): 5416 ± 136 g
Final 10-Week Shank-Toe Length ([1]; 50-mg pellet): 23.3 ± 0.22 cm
Right Breast Muscle ([1]; 50-mg pellet): 529 ± 22 g
Feed/Gain Ratio ([1]; 50-mg pellet): 1.99 ± 0.091
Abdominal Adipose (%) ([1]; 50-mg pellet): 59.6%
Average Daily Gain (%) ([1]; 50-mg pellet): 21.1%
Final 10-Week Body Weight (%) ([1]; 50-mg pellet): 10.3%
Right Breast Muscle (%) ([1]; 50-mg pellet): 23.3%
Feed Efficiency ([1]; 50-mg pellet): 21.6%
Abdominal Adipose ([2]; 5-mg pellet): 22.8
Average Daily Gain ([2]; 5-mg pellet): 108 ± 3 g
Final 9-Week Body Weight ([2]; 5-mg pellet): 4115 ± 122 g
Final 9-Week Shank-Toe Length ([2]; 5-mg pellet): 18.87 ± 0.25 cm
Right Breast Muscle ([2]; 5-mg pellet): 439 ± 15 g
Feed/Gain Ratio ([2]; 5-mg pellet): 1.92 ± 0.04
Abdominal Adipose (%) ([2]; 5-mg pellet): 23%
Feed/Gain Ratio (%) ([2]; 5-mg pellet): 9.0%
Right Breast Muscle (%) ([2]; 5-mg pellet): 12.6%
Abdominal Adipose ([2]; 50-mg pellet): 18.7
Average Daily Gain ([2]; 50-mg pellet): 127 ± 3 g
Final 9-Week Body Weight ([2]; 50-mg pellet): 4476 ± 94 g
Final 9-Week Shank-Toe Length ([2]; 50-mg pellet): 18.31 ± 0.24 cm
Right Breast Muscle ([2]; 50-mg pellet): 493 ± 17 g
Feed/Gain Ratio ([2]; 50-mg pellet): 1.76 ± 0.07
Abdominal Adipose (%) ([2]; 50-mg pellet): 37%
Feed/Gain Ratio (%) ([2]; 50-mg pellet): 16.6%
Average Daily Gain (%) ([2]; 50-mg pellet): 23.3%
Final 9-Week Body Weight (%) ([2]; 50-mg pellet): 11.6%
Right Breast Muscle (%) ([2]; 50-mg pellet): 26.4%

C[C@]12CCC(=O)C[C@@H]1CC[C@@H]1[C@@H]2CC[C@]2(C)[C@@H](O)CC[C@@H]12 [5-alpha-DHT, 5-alpha-dihydrotestosterone]
Abdominal Adipose ([1]; 5-cm Silastic capsule): 12.2 ± 1.44
Average Daily Gain ([1]; 5-cm Silastic capsule): 113 ± 3 g
Final 10-Week Body Weight ([1]; 5-cm Silastic capsule): 4985 ± 60 g
Final 10-Week Shank-Toe Length ([1]; 5-cm Silastic capsule): 24.4 ± 0.15 cm
Right Breast Muscle ([1]; 5-cm Silastic capsule): 465 ± 17 g
Feed/Gain Ratio ([1]; 5-cm Silastic capsule): 2.30 ± 0.120
Right Breast Muscle (%) ([1]; 5-cm capsule): 8.4%
Feed Efficiency ([1]; 5-cm capsule): 9.4%
Abdominal Adipose ([1]; 50-mg pellet): 9.53 ± 1.12
Average Daily Gain ([1]; 50-mg pellet): 120 ± 3 g
Final 10-Week Body Weight ([1]; 50-mg pellet): 5202 ± 44 g
Final 10-Week Shank-Toe Length ([1]; 50-mg pellet): 24.3 ± 0.28 cm
Right Breast Muscle ([1]; 50-mg pellet): 460 ± 10 g
Feed/Gain Ratio ([1]; 50-mg pellet): 2.33 ± 0.079
Average Daily Gain (%) ([1]; 50-mg pellet): 10.1%
Final 10-Week Body Weight (%) ([1]; 50-mg pellet): 6.0%
Right Breast Muscle (%) ([1]; 50-mg pellet): 7.2%
Abdominal Adipose ([2]; 5-mg pellet): 21.4
Average Daily Gain ([2]; 5-mg pellet): 106 ± 2 g
Final 9-Week Body Weight ([2]; 5-mg pellet): 4073 ± 72 g
Final 9-Week Shank-Toe Length ([2]; 5-mg pellet): 18.6 ± 0.21 cm
Right Breast Muscle ([2]; 5-mg pellet): 415 ± 7 g
Feed/Gain Ratio ([2]; 5-mg pellet): 2.03 ± 0.03
Abdominal Adipose (%) ([2]; 5-mg pellet): 28%
Abdominal Adipose ([2]; 50-mg pellet): 20.2
Average Daily Gain ([2]; 50-mg pellet): 121 ± 3 g
Final 9-Week Body Weight ([2]; 50-mg pellet): 4365 ± 84 g
Final 9-Week Shank-Toe Length ([2]; 50-mg pellet): 18.79 ± 0.25 cm
Right Breast Muscle ([2]; 50-mg pellet): 487 ± 13 g
Feed/Gain Ratio ([2]; 50-mg pellet): 1.82 ± 0.03
Abdominal Adipose (%) ([2]; 50-mg pellet): 32%
Feed/Gain Ratio (%) ([2]; 50-mg pellet): 13.7%
Average Daily Gain (%) ([2]; 50-mg pellet): 17.5%
Final 9-Week Body Weight (%) ([2]; 50-mg pellet): 8.9%
Right Breast Muscle (%) ([2]; 50-mg pellet): 24.9%
